A melting point compilation (Tetko et al.; mined from patent text by program, amines drawn as free bases though some values may be those of a salt)

melting point | Structure (SMILES)
227 to 228 °C | COc1ccccc1S(=O)(=O)N(C)c1cccc2cc(C3=NCC(CC(N)=O)S3)[nH]c12 (stereo not drawn)
127 to 128 °C | O=[N+]([O-])c1cc(NCCO)c(Cl)cc1NCCO
95 to 97 °C | CCOC(=O)CCCC(=O)c1cn(-c2cccnc2)c2ccccc12
214 °C | O=C(O)c1nc2cc(N3CCOCC3)c([N+](=O)[O-])cc2[nH]c1=O
73 to 75 °C | CC1=CC(=O)C(C)S(=O)(=O)N1C (stereo not drawn)
78 to 80 °C | CC(=O)OC1C=C(Br)C(=O)CO1 (stereo not drawn)
201 to 202 °C | COC(=O)c1[nH]c2c(C)ccc(C)c2c1C(N)=O
151 to 155 °C | Cc1cc(N2CCC(CC(=O)N3CCN(Cc4ccccc4)CC3)CC2)ccc1Oc1ccc(NS(=O)(=O)c2ccc(Cl)c(Cl)c2)cn1
74 to 77 °C | Nc1c(Cl)cc(C(O)CNCCCCOCCSCCc2ccccc2)cc1Cl (stereo not drawn)
190 to 191 °C | COCc1cnc2c(NC(=O)c3c(Cl)cccc3Cl)cccc2c1Cn1ccnc1
123 °C | O=C(O)CCCc1ccccc1CC1C(=O)CC(=O)C1=O (stereo not drawn)
181 to 182 °C | Cc1c(OC(F)F)ccnc1CSc1nc2ccc(OC(F)F)cc2[nH]1
195 °C | CN(C)C(=O)c1ccncc1-c1nc(-c2ccc(Cl)cc2)cs1
205 to 206 °C | N#Cc1cc(C(=O)NN2CCOCC2)ccc1OCC(=O)O
158 to 159 °C | Cc1c(CCC#N)c2c(c(C(C)C)c1OCc1ccccc1)CC(C)(C)O2
118 °C | CC(C)[C@H](O)[C@@H](CCCCOc1ccc(Cl)cc1Cl)n1nc[nH]c1=S (racemic)
166 °C | COc1ccc(S(=O)(=O)C2(C(=O)NO)CCN(Cc3ccc(-c4cccs4)cc3)CC2)cc1
156 to 158 °C | CSc1ccc(Oc2ccc(Cl)c(Cl)c2)nc1C#N
210 to 212 °C | O=C(O)c1cc(S(=O)(=O)c2ccccc2)ccc1[N+](=O)[O-]
74 to 77 °C | CCCCCCCCCCCCCCCCCCNC(=O)OCC(CNS(=O)(=O)CCCCl)n1nnnc1C (stereo not drawn)
41.5 to 43 °C | C#CCCCOc1c(C)cc(-c2noc(C)n2)cc1C
99 to 100 °C | COCC(=O)Nc1nc2ccccc2s1
170 to 172 °C | c1cc2c(c3c1CCN3)CCS2
117 to 119 °C | C(=Cc1cccnc1)c1ccc(C2OCCO2)cc1
315 °C | CCn1c2ccccc2c2[nH]c(=O)c3nccn3c21

melting point | Structure (SMILES)
41 to 43 °C | CC(=CCO)COc1ccc([N+](=O)[O-])cc1
197 to 200 °C | Cn1c(=O)c(S(C)=O)c(O)c2ccccc21 (stereo not drawn)
238 to 240 °C | CCOC(=O)c1cnn2c1nc(S)c1cnc3c(cnn3CC)c12
222 to 225 °C | Cn1c(CCc2ccc(C#N)cc2)nc2cc(NS(=O)(=O)c3ccccc3)ccc21
71 to 72 °C | CC(C)C1NC(=O)OC1C(F)(F)F (stereo not drawn)
110 °C | COc1ccc(CN2CCc3nc(-c4ccccc4)c4c(c3C2)CO[C@@H](C)C4)cc1
210 to 212 °C | COc1ccc(NC(=O)c2ccc(-c3ccc(S(C)=O)cc3)c(C)c2)cc1N1CCN(C)CC1 (stereo not drawn)
> 250 °C | Nc1nc(N)c2c(n1)NCC(CCc1ccc(C(=O)N[C@@H](CCC(=O)O)C(=O)O)cc1)C2 (stereo partly drawn)
170 to 172 °C | N#Cc1cccc(C=CC(=O)c2ccc(F)cc2)c1
90 to 93 °C | OC(CNC1CCc2ccccc2C1)COc1cccc2c1CCCC2 (stereo not drawn)
138 to 140 °C | Cc1cc2c(Cl)cc(F)c(-c3ccc(C(F)(F)F)n(C)c3=O)c2o1
238 to 240 °C | CC(C)(C)c1n[nH]c(SCCNC(=O)Nc2ccc(C(F)(F)F)cc2)n1
156 to 158 °C | c1cncc(-c2ccnc3nc(N4CCNCC4)nn23)c1
167 to 168 °C | Cn1cc(-c2cccc(C3NCCc4c3sc3c4CC(C)(C)C3)c2CO)cc(Nc2cnn3c2COCC3)c1=O (stereo not drawn)
246 °C | CS(=O)(=O)c1ccc(-c2nc(C(F)(F)F)nn2-c2ccc(O)cc2)cc1
260 to 262 °C | COc1cc(C(=O)O)cc2c1C(=O)c1c(OC)ccc(OC)c1C2=O
171 to 172 °C | OC1(NC2=NCCS2)C(=Cc2ccccc2)CSCC1=Cc1ccccc1 (stereo not drawn)
132 to 134 °C | CCN(CC)C1=C2N=c3cc(Cl)ccc3=C2Oc2ccccc2N1Cc1ccccc1
157 to 159 °C | CCN(C)C(=O)NC(=O)Nc1ccccc1
216 to 218 °C | CC(=O)Oc1cc2oc(=O)cc(CSc3ccccc3C(=O)O)c2cc1OC(C)=O
86 °C | COc1cc(Cc2cnc(N)nc2N)cc(-c2ccc(CO)cc2)c1OC
78 to 79 °C | Cc1nn(-c2ccc(Cl)c3c2CC(C)O3)c(=O)n1C(F)F (stereo not drawn)
197 °C | CN1CCC(C(=O)Nc2cccc3nc(NC4CCc5ccccc54)ccc23)CC1 (stereo not drawn)
180 to 184 °C | CCCNC(=S)NC1=Nc2ccccc2CS1
51 to 52 °C | COc1ccc(C=O)c(OC)c1C

melting point | Structure (SMILES)
106 to 107 °C | O=C(O)CCCC1Cc2ccc(F)cc2C1=O (stereo not drawn)
67.5 °C | CC(C)(C)OC(=O)N=C(N)N(Cc1ccc(OCCC2Oc3cc([N+](=O)[O-])ccc3N(Cc3cccc(Cl)c3)C2=O)cc1)C(=O)OC(C)(C)C (stereo not drawn)
137 to 139 °C | CC(C(=O)O)c1ccc(-c2ccc(Br)cc2F)cc1 (stereo not drawn)
122 to 131 °C | COc1ccc2c(Cl)cc(-c3ccc(Cl)c(Cl)c3)nc2c1
284 to 285 °C | COc1ccccc1-n1c(=O)[nH]c2c(C(N)=O)nc(-c3cccc(N)c3)nc21
207 to 209 °C | CCN(CC)CCNC(=O)c1cccc2c(=O)cc(-c3ccc([N+](=O)[O-])cc3)oc12
209 to 210 °C | CCc1cc(NCc2nc3ccccc3s2)c(=O)[nH]c1C
54 to 55 °C | Ic1n[nH]c2ccccc12
191 to 194 °C | C[C@H](CO)Nc1nc(SCc2ccno2)nc2[nH]c(=O)cnc12
78 to 82 °C | CCOc1nc(F)cc2nc(=S)[nH]n12
195 to 197 °C | CN(C)c1ccc(C2OC(=O)c3c(Cl)c(Cl)c(Cl)c(Cl)c32)c(N(C)C)c1 (stereo not drawn)
78 to 80 °C | COC(=O)C(Cl)=Cc1ccc(Cl)cc1
117 to 120 °C | Cc1nn(-c2ccccn2)c2nc3ccccc3c(OCC(C)C)c12
56 to 57 °C | COC(=O)c1cccc(=O)n1C
71 to 74 °C | CCCCCCCCCCCCCCOc1ccc(OCc2ccccc2)c(C(=O)N(CC(=O)O)CC(=O)O)c1
118 to 121 °C | O=C(COc1ccc([N+](=O)[O-])cc1)OCCOC(=O)COc1ccc([N+](=O)[O-])cc1
131 to 133 °C | Cc1ccc(S(=O)(=O)ON2C(=O)c3ccc(C(=O)Cl)cc3C2=O)cc1
178 to 185 °C | CC(C)(C)CNc1cc(NCC(C)(C)C)nc(Cl)n1
110 to 113 °C | CCCCCCCCCCCCCOc1ccc(CNc2ccc(C(=O)O)cc2)cc1
189 to 190 °C | Nc1cc(Br)c(Br)cc1N
118 to 120 °C | OCC(O)CN1CCN(c2ncccn2)CC1 (stereo not drawn)
191 to 193 °C | CCOC(=O)c1[nH]c2ccc(Cl)cc2c1-c1ccccc1F
200 to 203 °C | O=C(O)CC(Br)C(Br)c1ccc(-c2ccccc2)cc1 (stereo not drawn)
155 to 160 °C | CC(C)(C)OC(=O)NC1CCN(CC23CC(c4ccccc42)c2ccccc23)CC1
138 to 141 °C | CCCOC(=O)C1=C(C)NC(C=O)=C(C(=O)OC)C1c1ccccc1C#N (stereo not drawn)

melting point | Structure (SMILES)
161 to 164 °C | O=S(=O)(CC(F)(F)F)c1nc2cc(Cl)ccc2[nH]1
208 to 210 °C | CCOc1ccc(N)cc1-c1nc2cccnc2c(=O)[nH]1
209 °C | CC1c2cc(C(C)(C)C)cc(C(C)(C)C)c2O[PH](=O)Oc2c1cc(C(C)(C)C)cc2C(C)(C)C (stereo not drawn)
145 to 148 °C | Nc1ccc(S(=O)(=O)N2C=CC(CCO)Sc3ccccc32)cc1 (stereo not drawn)
162 to 170 °C | O=C(O)c1cc(Oc2c(Br)cc(Br)cc2Br)ccc1[N+](=O)[O-]
92 to 95 °C | Cc1ccc(C(=O)/C(=C\c2ccccc2)C(=O)OC(C)(C)C)c(O)c1
177 to 178 °C | Cc1ccc(C=C(C=O)C(C=O)=Cc2ccc(C)cc2)cc1
158 to 160 °C | CCOC(=O)c1nc(N)sc1C(=O)C(C)Br (stereo not drawn)
137 to 139 °C | O=C(O)c1ccc(OC(F)(F)F)c([N+](=O)[O-])c1
86 to 88 °C | CCOC(=O)C(C)OCc1cc2nc(Cl)ccc2n1S(=O)(=O)c1ccc2nc(N)sc2c1 (stereo not drawn)
113 to 114 °C | CC(C)(C)OC(=O)N[C@H]1CCN(OCc2ccccc2)C1=O
102 to 104 °C | CN1CCCC[C@H]1C[C@H](O)c1ccc(Br)cc1
58 to 62 °C | CC(=O)OCCC1(C)CCc2c(C)c(OCc3ccccc3)c(C)c(C)c2O1 (stereo not drawn)
220 to 222 °C | CC(C)(Cc1ccccc1)C(NC(=O)c1cccnc1)Nc1c(Nc2cccnc2)c(=O)c1=O (stereo not drawn)
94 °C | CS(=O)(=O)OCCc1ccc(N2CCCC2=O)cc1
218 to 220 °C | CC(=O)NC1=CC(C)(C)Oc2cc3nonc3cc21
245 to 247 °C | CS(=O)(=O)c1ccc(-c2cnn(-c3cccc(F)c3)c(=O)c2-c2ccc(F)cc2)cc1
183 to 185 °C | Cc1nc(N2CCN(Cc3ccc(F)cc3)C2=O)sc1C(=O)NCc1ccccn1
279 to 281 °C | COc1cc(Nc2ncc(-c3cccc([N+](=O)[O-])c3)o2)ccc1-c1cnco1
173 to 175 °C | Cc1ccc(Cn2c(-c3ccccc3)nc(Cl)c2CO)cc1
112 to 113 °C | Oc1ccc(Cc2ccccc2)c2cccnc12
171 to 175 °C | COc1nc(-n2cc(C(=O)O)c(=O)c3cc(F)c(N4CC(N)C4)c(Cl)c32)c(F)cc1F
249 to 251 °C | Cn1c(=O)cc(N)n(-c2ccc(Cl)cc2Cl)c1=O

Structure (SMILES) | melting point
CN(CC(=O)O)C(=O)CN1CCCC1=O | 178 °C
CCOC(=O)[C@H](CCSC)NC(=O)C1(Br)SC=C(Br)C1Br (stereo partly drawn) | 80 to 82 °C
CC1(C)CCC(C)(C)c2c(O)cc(C=O)cc21 | 144 °C
Cc1nn(-c2ccc(C#N)c(Cl)c2)c(C)c1Cc1ccc(C(=O)NC(C)(C)C)cc1 | 135 to 136 °C
CC(=O)OC1CC2(C)C(=O)CCC2C2C=CC3=CC(=O)CCC3C12 (stereo not drawn) | 246 to 248 °C
